Here are results for 25 molecules from patent publication US10611750B2, “Tetrahydroquinoline compositions as bet bromodomain inhibitors” (FORMA Therapeutics, Inc., priority 2013, dated 2020).

Assay [1] addresses T1, BRD4 Bromodomain 1 (BRD4 BD1) (Homo sapiens, UniProt O60885).
T1 construct: 44-168 and BRD4 BD2
Nature of the assay: AlphaScreen binding assay, BRD4 BD1. The settings on record: His-tagged BRD4 BD1 50 nM, biotinylated H4 (1-21) K5/8/12/16 tetra-acetylated peptide 50 nM, compounds listed under IC50 range headings. A digest of the protocol:
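An AlphaScreen competition format was used with His-BRD4 BD1 or BD2 and biotin-H4 K5/8/12/16-acetyl peptide, each at matched final levels of 50 nM (BD1) or 100 nM (BD2). Incubation in HEPES/NaCl buffer with 0.1% BSA and 0.01% Triton X-100 ran ≥1 h before IC50 determination.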
On the technique in general: Alpha assays give light when donor and acceptor beads are brought close together.

The subject of assay [2] is acute myelocytic leukemia (AML) cell line MV4-11. Briefly: Oncology cell growth assay (3-day proliferation, CellTiter-Glo). It is filed as cell-based. The settings on record: Homo sapiens, MV4-11, 72 h, MV4-11 cells, 3000 cells/well, compounds listed under IC50 range headings, read-out: MV411 IC50 (gIC50, inhibition of proliferation). Summed up:
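Luminescence from CellTiter-Glo served as the growth read-out after MV4-11 cells (3000/well) were cultured with compound for 72 hours. Final concentrations spanned 10 to 0.0045 μM in 3-fold steps. gIC50 values were derived by four-parameter logistic fitting relative to DMSO and cell-free controls.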
In general terms: Cellular ATP, detected with luciferase, serves as a proxy for viable cell number.

pIC50: −log10 of the molar value. Some results are limits rather than exact numbers.

Take `CC(=O)N1c2ccc(-c3cnn(C4CCNCC4)c3)c(Oc3ccc(F)c(F)c3)c2CC[C@@H]1C` [I-275, (S)-1-(5-(3,4-difluorophenoxy)-2-methyl-6-(1-(piperidin-4-yl)-1H-pyrazol-4-yl)-3,4-dihydroquinolin-1 (2H)-yl)ethanone]: the pIC50 in assay [1] was 6.00 to 7.00; in assay [2], above 6.30.

With `CC(=O)N1c2ccc(-c3cnn(C4CCNCC4)c3)c(Oc3cc(F)ccc3F)c2CC[C@@H]1C` [I-276, (S)-1-(5-(2,5-difluorophenoxy)-2-methyl-6-(1-(piperidin-4-yl)-1H-pyrazol-4-yl)-3,4-dihydroquinolin-1(2H)-yl)ethanone], the figures for the pIC50 in assay [1] and in assay [2] were 6.00 to 7.00 and above 6.30, respectively.

In the case of `C[C@H]1CCc2c(ccc(-c3cnn4c3NCC4)c2OC2CCC2)N1C(=O)C1CC1` [I-278, ((2S)-5-cyclobutoxy-6-(2,3-dihydro-1H-pyrazolo[1,5-a]imidazol-7-yl)-2-methyl-3,4-dihydroquinolin-1(2H)-yl)(cyclopropyl)methanone], the pIC50 in assay [1] is 6.00 to 7.00; in assay [2], above 6.30.

For the molecule `C[C@H]1CCc2c(ccc(-c3cnn4c3N(S(C)(=O)=O)CC4)c2OC2CCC2)N1C(=O)C1CC1` [I-279, ((2S)-5-cyclobutoxy-2-methyl-6-(1-(methylsulfonyl)-2,3-dihydro-1H-pyrazolo[1,5-a]imidazol-7-yl)-3,4-dihydroquinolin-1 (2H)-yl)(cyclopropyl)methanone], the pIC50 was 5.00 to 6.00 in assay [1] and below 6.00 in assay [2].

Regarding `COC(=O)N1c2ccc(-c3csc(C4(O)CCNCC4)n3)c(OC3CCC3)c2CC[C@@H]1C` [I-280, methyl (S)-5-cyclobutoxy-6-(2-(4-hydroxypiperidin-4-yl)thiazol-4-yl)-2-methyl-3,4-dihydroquinoline-1(2H)-carboxylate], the figures for the pIC50 in assay [1] and in assay [2] were 5.00 to 6.00 and above 6.30, respectively.

As for `COC(=O)N1c2ccc(-c3csc(C4(F)CCNCC4)n3)c(OC3CCC3)c2CC[C@@H]1C` [I-281, methyl (S)-5-cyclobutoxy-6-(2-(4-fluoropiperidin-4-yl)thiazol-4-yl)-2-methyl-3,4-dihydroquinoline-1(2H)-carboxylate], the values for the pIC50 in assay [1] and in assay [2] were 6.00 to 7.00 and 6.00 to 6.30, respectively.

As to `COC(=O)N1c2ccc(-c3cnn(C4CCNCC4OC)c3)c(OC3CCC3)c2CC[C@@H]1C` (stereo partly drawn) [I-290, (2S)-methyl 5-cyclobutoxy-6-(1-(3-methoxypiperidin-4-yl)-1H-pyrazol-4-yl)-2-methyl-3,4-dihydroquinoline-1(2H)-carboxylate], the results for the pIC50 in assay [1] and in assay [2] were 6.00 to 7.00 and above 6.30, respectively.

In the case of `COC(=O)N1c2ccc(-c3cnn(C4CCNCC4OC)c3)c(Oc3ccc(F)cc3)c2CC[C@@H]1C` (stereo partly drawn) [I-291, (2S)-methyl 5-(4-fluorophenoxy)-6-(1-(3-methoxypiperidin-4-yl)-1H-pyrazol-4-yl)-2-methyl-3,4-dihydroquinoline-1(2H)-carboxylate], the values for the pIC50 in assay [1] and in assay [2] were 6.00 to 7.00 and above 6.30, respectively.

For the molecule `COC(=O)N1c2ccc(-c3cnn(C4CCN(C)CC4OC)c3)c(OC3CCC3)c2CC[C@@H]1C` (stereo partly drawn) [I-292, (2S)-methyl 5-cyclobutoxy-6-(1-(3-methoxy-1-methylpiperidin-4-yl)-1H-pyrazol-4-yl)-2-methyl-3,4-dihydroquinoline-1 (2H)-carboxylate], the pIC50 in assay [1] was 6.00 to 7.00; in assay [2], above 6.30.

With `COC(=O)N1c2ccc(-c3cnn(C4CCN(C)CC4OC)c3)c(Oc3ccc(F)cc3)c2CC[C@@H]1C` (stereo partly drawn) [I-293, (2S)-methyl 5-(4-fluorophenoxy)-6-(1-(3-methoxy-1-methylpiperidin-4-yl)-1H-pyrazol-4-yl)-2-methyl-3,4-dihydroquinoline-1(2H)-carboxylate], the pIC50 was 6.00 to 7.00 in assay [1] and above 6.30 in assay [2].

Regarding `C[C@H]1CCc2c(ccc(-c3cnn(C4CCCS(=O)(=O)C4)c3)c2Oc2ccccc2)N1C(=O)C1CC1` (stereo partly drawn) [I-294, 3-{4-[(2S)-1-cyclopropanecarbonyl-2-methyl-5-phenoxy-1,2,3,4-tetrahydroquinolin-6-yl]-1H-pyrazol-1-yl}-1λ^6-thiane-1,1-dione], the figures for the pIC50 in assay [1] and in assay [2] were 6.00 to 7.00 and above 6.30, respectively.

As for `C[C@H]1CCc2c(ccc(-c3cnn(C4CCCS(=O)(=O)C4)c3)c2Oc2ccc(F)cc2)N1C(=O)C1CC1` (stereo partly drawn) [I-295, 3-{4-[(2S)-1-cyclopropanecarbonyl-5-(4-fluorophenoxy)-2-methyl-1,2,3,4-tetrahydroquinolin-6-yl]-1H-pyrazol-1-yl}-1λ^6-thiane-1,1-dione], the pIC50 is 6.00 to 7.00 in assay [1] and above 6.30 in assay [2].

For the molecule `COC(=O)N1c2ccc(-c3cnn(C4CCNC(=O)C4)c3)c(OC3CCC3)c2CC[C@@H]1C` (stereo partly drawn) [I-296, (2S)-methyl 5-cyclobutoxy-2-methyl-6-(1-(2-oxopiperidin-4-yl)-1H-pyrazol-4-yl)-3,4-dihydroquinoline-1(2H)-carboxylate], the pIC50 is 6.00 to 7.00 in assay [1] and above 6.30 in assay [2].

For `COC(=O)N1c2ccc(-c3cnn(C4CCNC(=O)C4)c3)c(Oc3ccc(F)cc3)c2CC[C@@H]1C` (stereo partly drawn) [I-297, (2S)-methyl 5-(4-fluorophenoxy)-2-methyl-6-(1-(2-oxopiperidin-4-yl)-1H-pyrazol-4-yl)-3,4-dihydroquinoline-1(2H)-carboxylate], the pIC50 is 6.00 to 7.00 in assay [1] and above 6.30 in assay [2].

Regarding `COC(=O)N1c2ccc(-c3cnn(C4CNC4C)c3)c(Oc3ccc(F)cc3)c2CC[C@@H]1C` (stereo partly drawn) [I-298, methyl (2S)-5-(4-fluorophenoxy)-2-methyl-6-(1-(2-methylazetidin-3-yl)-1H-pyrazol-4-yl)-3,4-dihydroquinoline-1(2H)-carboxylate], the pIC50 is 6.00 to 7.00 in assay [1] and above 6.30 in assay [2].

Turning to `COC(=O)N1c2ccc(-c3cnn(C4CNC4C)c3)c(OC3CCC3)c2CC[C@@H]1C` (stereo partly drawn) [I-299, methyl (2S)-5-cyclobutoxy-2-methyl-6-(1-(2-methylazetidin-3-yl)-1H-pyrazol-4-yl)-3,4-dihydroquinoline-1(2H)-carboxylate], the pIC50 in assay [1] was 5.00 to 6.00; in assay [2], 6.00 to 6.30.

`C[C@H]1CCc2c(ccc(-c3cnn(C4CC4)c3NS(C)(=O)=O)c2OC2CCC2)N1C(=O)C1CC1` [I-300, N-(4-((2S)-5-cyclobutoxy-1-(cyclopropanecarbonyl)-2-methyl-1,2,3,4-tetrahydroquinolin-6-yl)-1-cyclopropyl-1H-pyrazol-5-yl)methanesulfonamide]: the pIC50 in assay [1] was at most 5.00; in assay [2] it was below 6.00.

On to `CC(=O)Nc1c(-c2ccc3c(c2OC2CCC2)CC[C@H](C)N3C(=O)C2CC2)cnn1C1CC1` [I-301, N-(4-((2S)-5-cyclobutoxy-1-(cyclopropanecarbonyl)-2-methyl-1,2,3,4-tetrahydroquinolin-6-yl)-1-cyclopropyl-1H-pyrazol-5-yl)acetamide], for which the pIC50 is 5.00 to 6.00 in assay [1] and below 6.00 in assay [2].

For the molecule `COC(=O)N1c2ccc(-c3cnn(C4CC(O)C4)c3)c(OC3CCC3)c2CC[C@@H]1C` (stereo partly drawn) [I-302, (S)-methyl 5-cyclobutoxy-6-(1-(3-hydroxycyclobutyl)-1H-pyrazol-4-yl)-2-methyl-3,4-dihydroquinoline-1(2H)-carboxylate], the pIC50 in assay [1] is 6.00 to 7.00; in assay [2] it was above 6.30.

Regarding `COC(=O)N1c2ccc(-c3c[nH]c(C4CCNCC4)n3)c(OC3CCC3)c2CC[C@@H]1C` [I-303, methyl (S)-5-cyclobutoxy-2-methyl-6-(2-(piperidin-4-yl)-1H-imidazol-4-yl)-3,4-dihydroquinoline-1(2H)-carboxylate], the pIC50 in assay [1] was 6.00 to 7.00; in assay [2], above 6.30.

`COC(=O)N1c2ccc(-c3cn(C)c(C4CCNCC4)n3)c(OC3CCC3)c2CC[C@@H]1C` [I-304, methyl (S)-5-cyclobutoxy-2-methyl-6-(1-methyl-2-(piperidin-4-yl)-1H-imidazol-4-yl)-3,4-dihydroquinoline-1(2H)-carboxylate]: the pIC50 in assay [1] was at most 5.00; in assay [2] it was below 6.00.

As to `C[C@H]1CCc2c(ccc(-c3ccn(C4CCNCC4)n3)c2OC2CCC2)N1C(=O)C1CC1` [I-305, (S)-(5-cyclobutoxy-2-methyl-6-(1-(piperidin-4-yl)-1H-pyrazol-3-yl)-3,4-dihydroquinolin-1 (2H)-yl)(cyclopropyl)methanone], the pIC50 was 5.00 to 6.00 in assay [1] and above 6.30 in assay [2].

Turning to `C[C@H]1CCc2c(ccc(-c3ccnn3C3CCNCC3)c2OC2CCC2)N1C(=O)C1CC1` [I-306, ((2S)-5-cyclobutoxy-2-methyl-6-(1-(piperidin-4-yl)-1H-pyrazol-5-yl)-3,4-dihydroquinolin-1(2H)-yl)(cyclopropyl)methanone], the pIC50 in assay [1] was at most 5.00; in assay [2], below 6.00.

Turning to `C[C@H]1CCc2c(ccc(-c3ccn(C4CCNCC4)n3)c2Oc2ccccc2)N1C(=O)C1CC1` [I-307, (S)-cyclopropyl(2-methyl-5-phenoxy-6-(1-(piperidin-4-yl)-1H-pyrazol-3-yl)-3,4-dihydroquinolin-1(2H)-yl)methanone], the pIC50 in assay [1] was 6.00 to 7.00; in assay [2] it was above 6.30.

Turning to `C[C@H]1CCc2c(ccc(-c3ccnn3C3CCNCC3)c2Oc2ccccc2)N1C(=O)C1CC1` [I-308, cyclopropyl((2S)-2-methyl-5-phenoxy-6-(1-(piperidin-4-yl)-1H-pyrazol-5-yl)-3,4-dihydroquinolin-1(2H)-yl)methanone], the pIC50 in assay [1] was at most 5.00; in assay [2] it was below 6.00.
